In patent US5026832A, “9-dihydro-9-O-alkyldesmycosin derivatives” (Toyo Jozo Co., Ltd., priority 1988, dated 1991):
In brackets after ≈: the same amount, converted by molar mass.

Experiments:
[1] = test system: Staphylococcus aureus MS 353; experiment: Antimicrobial activity (minimum inhibitory concentration); format: cell-based; conditions: MS353; Staphylococcus aureus MS 353, about 10^6 /ml
Protocol: (§1) Minimum inhibitory concentrations (MIC, μg/ml) of various compounds of formula (I) against various microorganisms (about 10^6 /ml) were measured.

[2] = test system: Staphylococcus pyogenes N.Y.5; experiment: as above; format: cell-based; conditions: Staphylococcus pyogenes N.Y.5, about 10^6 /ml
Protocol: as §1

[3] = test system: Staphylococcus aureus FDA 209P JC-1; experiment: as above; format: cell-based; conditions: FDA209P; Staphylococcus aureus FDA 209P JC-1, about 10^6 /ml
Protocol: as §1

[4] = test system: Staphylococcus pyogenes S-23; experiment: as above; format: cell-based; conditions: Staphylococcus aureus, S23; Staphylococcus pyogenes S-23, about 10^6 /ml
Protocol: as §1

[5] = test system: Staphylococcus aureus MS 353 C36; experiment: as above; format: cell-based; conditions: MS353C36; Staphylococcus aureus MS 353 C36, about 10^6 /ml
Protocol: as §1

[6] = test system: Staphylococcus aureus Smith; experiment: as above; format: cell-based; conditions: about 10^6 /ml
Protocol: as §1

[7] = test system: Staphylococcus epidermidis sp-al-1; experiment: as above; format: cell-based; conditions: SPAL1; Staphylococcus epidermidis sp-al-1, about 10^6 /ml
Protocol: as §1

[8] = test system: Staphylococcus pyogenes S-23; experiment: Infectious disease curing effect by oral administration in infected mice; format: in vivo, ICR male mice; conditions: Staphylococcus aureus, S23, 120 h; oral, 1 hour after abdominal inoculation of Staphylococcus pyogenes S-23, inspected for 5 days, Van der Waerden method; read-out: ED50
Protocol: A pre-incubated test microorganism, Staphylococcus pyogenes S-23, was suspended in a 5% mucin solution and inoculated into the ICR male mice (8 mice per group) abdomen in an amount of 2×10^2. After 1 hour, Compounds (I) of the present invention dissolved or suspended in a phosphate buffer were orally administered to the mice. The mice were inspected for 5 days to determine ED50 (mg/kg) by the Van der Waerden method.

[9] = test system: Staphylococcus pyogenes 1022; experiment: Antimicrobial activity (minimum inhibitory concentration); format: cell-based; conditions: Staphylococcus pyogenes 1022, about 10^6 /ml
Protocol: as §1

**Q.** With CCC1OC(=O)CC(O)C(C)C(OC2OC(C)C(O)C(N(C)C)C2O)C(CC=O)CC(C)C(OC)C=CC(C)=CC1COC1OC(C)C(O)C(OC)C1OC (stereo not shown) [Compound 1, 9-dihydro-9-O-methyldesmycosin] as the compound, how does the MIC [1] read?
**A.** 0.2 µg/mL (≈ 0.254 µM)

**Q.** What about the MIC [2] of the same compound?
**A.** ≤ 0.05 µg/mL

**Q.** What about the MIC [3] of the same compound?
**A.** 0.1 µg/mL (≈ 0.127 µM)

**Q.** What about the MIC [4] of the same compound?
**A.** ≤ 0.05 µg/mL

**Q.** What about the MIC [5] of the same compound?
**A.** 0.2 µg/mL (≈ 0.254 µM)

**Q.** And the MIC [6]?
**A.** 0.39 µg/mL (≈ 0.495 µM)

**Q.** And the MIC [7]?
**A.** ≤ 0.05 µg/mL

**Q.** What about the ED50 [8] of the same compound?
**A.** 100 to 200 mg/kg

**Q.** How did the MIC [9] turn out when CCC1OC(=O)CC(O)C(C)C(OC2OC(C)C(O)C(N(C)C)C2O)C(CC=O)CC(C)C(OCC2CCCCC2)C=CC(C)=CC1COC1OC(C)C(O)C(OC)C1OC (stereo not shown) [Compound 16, 9-dihydro-9-O-cyclohexylmethyldesmycosin] was run?
**A.** 50 µg/mL (≈ 57.5 µM)

**Q.** What about the MIC [1] of the same compound?
**A.** 0.39 µg/mL (≈ 0.448 µM)

**Q.** What about the MIC [2] of the same compound?
**A.** 0.39 µg/mL (≈ 0.448 µM)

**Q.** And the MIC [3]?
**A.** 0.78 µg/mL (≈ 0.896 µM)

**Q.** What about the MIC [4] of the same compound?
**A.** 0.39 µg/mL (≈ 0.448 µM)

**Q.** What about the MIC [5] of the same compound?
**A.** 0.78 µg/mL (≈ 0.896 µM)

**Q.** And the MIC [6]?
**A.** 1.56 µg/mL (≈ 1.79 µM)

**Q.** What about the MIC [7] of the same compound?
**A.** 1.56 µg/mL (≈ 1.79 µM)

**Q.** CCCOC1C=CC(C)=CC(COC2OC(C)C(O)C(OC)C2OC)C(CC)OC(=O)CC(O)C(C)C(OC2OC(C)C(O)C(N(C)C)C2O)C(CC=O)CC1C (stereo not shown) [Compound 3, 9-dihydro-9-O-propyldesmycosin] was tested. Which MIC [9] did it give?
**A.** > 100 µg/mL

**Q.** What about the MIC [1] of the same compound?
**A.** 0.2 µg/mL (≈ 0.245 µM)

**Q.** And the MIC [2]?
**A.** ≤ 0.05 µg/mL

**Q.** What about the MIC [3] of the same compound?
**A.** 0.1 µg/mL (≈ 0.123 µM)

**Q.** What about the MIC [4] of the same compound?
**A.** 0.1 µg/mL (≈ 0.123 µM)

**Q.** What about the MIC [5] of the same compound?
**A.** 0.2 µg/mL (≈ 0.245 µM)

**Q.** What about the MIC [6] of the same compound?
**A.** 0.39 µg/mL (≈ 0.478 µM)

**Q.** And the MIC [7]?
**A.** 0.2 µg/mL (≈ 0.245 µM)

**Q.** For CCC1OC(=O)CC(O)C(C)C(OC2OC(C)CC(N(C)C)C2O)C(CC=O)CC(C)C(=O)C=CC(C)=CC1COC1OC(C)C(O)C(OC)C1OC (stereo not shown) [4'-Deoxydesmycosin, reference compound], which ED50 [8] is on record?
**A.** > 200 mg/kg

**Q.** Which results are given for CCC1OC(=O)CC(O)C(C)C(OC2OC(C)C(O)C(N(C)C)C2O)C(CC=O)CC(C)C(OCC(C)C)C=CC(C)=CC1COC1OC(C)C(O)C(OC)C1OC (stereo not shown) [Compound 17, 9-dihydro-9-O-isobutyldesmycosin]?
**A.** MIC [9]: > 100 µg/mL; MIC [1]: 0.39 µg/mL (≈ 0.47 µM); MIC [2]: 0.1 µg/mL (≈ 0.12 µM); MIC [3]: 0.39 µg/mL (≈ 0.47 µM); MIC [4]: 0.2 µg/mL (≈ 0.241 µM); MIC [5]: 0.39 µg/mL (≈ 0.47 µM); MIC [6]: 0.78 µg/mL (≈ 0.94 µM); MIC [7]: 0.39 µg/mL (≈ 0.47 µM)

**Q.** How did the MIC [9] turn out when CCC1OC(=O)CC(O)C(C)C(OC2OC(C)C(O)C(N(C)C)C2O)C(CC=O)CC(C)C(=O)C=CC(C)=CC1COC1OC(C)C(O)C(OC)C1OC (stereo not shown) [Desmycosin, 4'-demycarosyltylosin] was run?
**A.** > 100 µg/mL

**Q.** And the MIC [1]?
**A.** 0.2 µg/mL (≈ 0.259 µM)

**Q.** What about the MIC [2] of the same compound?
**A.** ≤ 0.05 µg/mL

**Q.** And the MIC [3]?
**A.** 0.2 µg/mL (≈ 0.259 µM)

**Q.** What about the MIC [4] of the same compound?
**A.** ≤ 0.05 µg/mL

**Q.** What about the MIC [5] of the same compound?
**A.** 0.2 µg/mL (≈ 0.259 µM)

**Q.** What about the MIC [6] of the same compound?
**A.** 0.39 µg/mL (≈ 0.505 µM)

**Q.** What about the MIC [7] of the same compound?
**A.** 0.2 µg/mL (≈ 0.259 µM)

**Q.** Which MIC [9] does the source give for CCC1OC(=O)CC(O)C(C)C(OC2OC(C)C(O)C(N(C)C)C2O)C(CC=O)CC(C)C(OCC2CC2)C=CC(C)=CC1COC1OC(C)C(O)C(OC)C1OC (stereo not shown) [Compound 14, 9-dihydro-9-O-cyclopropylmethyldesmycosin] here?
**A.** > 100 µg/mL

**Q.** What about the MIC [1] of the same compound?
**A.** 0.2 µg/mL (≈ 0.242 µM)

**Q.** And the MIC [2]?
**A.** 0.1 µg/mL (≈ 0.121 µM)

**Q.** What about the MIC [3] of the same compound?
**A.** 0.2 µg/mL (≈ 0.242 µM)

**Q.** And the MIC [4]?
**A.** ≤ 0.05 µg/mL

**Q.** And the MIC [5]?
**A.** 0.2 µg/mL (≈ 0.242 µM)

**Q.** What about the MIC [6] of the same compound?
**A.** 0.39 µg/mL (≈ 0.471 µM)

**Q.** And the MIC [7]?
**A.** 0.2 µg/mL (≈ 0.242 µM)

**Q.** With CCCOC1C=CC(C)=CC(COC2OC(C)C(O)C(OC)C2OC)C(CC)OC(=O)CC(OC(=O)CC)C(C)C(OC2OC(C)C(O)C(N(C)C)C2O)C(CC=O)CC1C (stereo not shown) [Compound 11, 9-dihydro-9-O-propyl-3-O-propionyldesmycosin] as the compound, how does the MIC [9] read?
**A.** 100 µg/mL (≈ 115 µM)

**Q.** What about the MIC [1] of the same compound?
**A.** 0.2 µg/mL (≈ 0.229 µM)

**Q.** What about the MIC [2] of the same compound?
**A.** 0.1 µg/mL (≈ 0.115 µM)

**Q.** What about the MIC [3] of the same compound?
**A.** 0.2 µg/mL (≈ 0.229 µM)

**Q.** And the MIC [4]?
**A.** 0.2 µg/mL (≈ 0.229 µM)

**Q.** What about the MIC [5] of the same compound?
**A.** 0.39 µg/mL (≈ 0.447 µM)

**Q.** And the MIC [6]?
**A.** 0.78 µg/mL (≈ 0.894 µM)

**Q.** And the MIC [7]?
**A.** 0.39 µg/mL (≈ 0.447 µM)

**Q.** For CCC1OC(=O)CC(OC(C)=O)C(C)C(OC2OC(C)C(O)C(N(C)C)C2O)C(CC=O)CC(C)C(OC)C=CC(C)=CC1COC1OC(C)C(O)C(OC)C1OC (stereo not shown) [Compound 12, 9-dihydro-9-O-methyl-3-O-acetyldesmycosin], which MIC [9] is on record?
**A.** > 100 µg/mL

**Q.** What about the MIC [1] of the same compound?
**A.** 0.2 µg/mL (≈ 0.241 µM)

**Q.** And the MIC [2]?
**A.** 0.1 µg/mL (≈ 0.12 µM)

**Q.** And the MIC [3]?
**A.** 0.2 µg/mL (≈ 0.241 µM)

**Q.** What about the MIC [4] of the same compound?
**A.** 0.1 µg/mL (≈ 0.12 µM)

**Q.** What about the MIC [5] of the same compound?
**A.** 0.2 µg/mL (≈ 0.241 µM)

**Q.** And the MIC [6]?
**A.** 0.39 µg/mL (≈ 0.47 µM)

**Q.** And the MIC [7]?
**A.** 0.39 µg/mL (≈ 0.47 µM)

**Q.** With CCC1OC(=O)CC(O)C(C)C(OC2OC(C)CC(N(C)C)C2O)C(CC=O)CC(C)C(OC)C=CC(C)=CC1COC1OC(C)C(O)C(OC)C1OC (stereo not shown) [Compound 6, 9-dihydro-9-O-methyl-4'-deoxydesmycosin] as the compound, how does the MIC [1] read?
**A.** 0.2 µg/mL (≈ 0.259 µM)

**Q.** What about the MIC [2] of the same compound?
**A.** ≤ 0.05 µg/mL

**Q.** What about the MIC [3] of the same compound?
**A.** 0.1 µg/mL (≈ 0.13 µM)

**Q.** What about the MIC [4] of the same compound?
**A.** ≤ 0.05 µg/mL

**Q.** And the MIC [5]?
**A.** 0.2 µg/mL (≈ 0.259 µM)

**Q.** What about the MIC [6] of the same compound?
**A.** 0.39 µg/mL (≈ 0.505 µM)

**Q.** What about the MIC [7] of the same compound?
**A.** 0.1 µg/mL (≈ 0.13 µM)

**Q.** What about the ED50 [8] of the same compound?
**A.** 64.8 mg/kg
